Values quoted from earlier work as cited in patent US20090258907A1, “COMPOUNDS USEFUL AS INHIBITORS OF ROCK KINASES” (ABBOTT LABORATORIES, priority 2008, published 2009).

What was measured:
[1] = OLETF rats, high dose
[2] = Zucker obese rats, 4 weeks
[3] = test system: vascular smooth muscle cell (VSMC); details: vein grafts, weeks following the procedure
[4] = experimental myocardial infarction (MI); rat chronic hypertension induced congestive heart failure
[5] = CNS ischemic conditions
[6] = mouse, in vivo

O=S(=O)(c1cccc2cnccc12)N1CCCNCC1 [fasudil]
development of diabetes, obesity, dyslipidemia; serum adiponectin [1]: completely suppressed the development of diabetes, obesity, and dyslipidemia and increased serum adiponectin levels | blood pressure, glucose and lipid metabolism, insulin signalling, endothelial dysfunction [2]: reduced blood pressure, corrected glucose and lipid metabolism, improved insulin signalling and endothelial dysfunction | VSMC apoptosis [3]: enhanced | intimal thickening and VSMC proliferation [3]: significantly suppressed | effect on ischemia-reperfusion injury, myocardial infarct size and myocardial fibrosis [4]: decrease ischemia-reperfusion injury, myocardial infarct size, and myocardial fibrosis | cerebral blood flow and neuroprotection [5]: increased cerebral blood flow and was neuroprotective | efficacy in animal models of epileptogenesis [6]: efficacy
